According to patent US9409895B2, “Autotaxin inhibitors” (Novartis AG, priority 2012, dated 2016):
Read-outs that look alike come from different tables or passages of the source.

Target: Recombinant human ATX (Homo sapiens (Human), UniProt Q13822)
Assay: ATX inhibition assay (released choline, choline oxidase/HRP/Amplex Red fluorescence)
Format: biochemical
Method: LPC (oleoyl (18:1)) was purchased from Avant: Polar Lipids (Alabaster, Ala.) and solubilized in methanol to 20 mM. Amplex Red was obtained from Invitrogen Life Technologies (Paisley, UK) and dissolved in DMSO to 10 mM. Choline oxidase and horseradish peroxidase (HRP) were obtained from Sigma Aldrich (Dorset, UK) and dissolved in HBSS to 20 U/ml and 200 U/ml respectively. AH reagents were stored at −20° C. in single use aliquots. All experimental measurements were performed in assay buffer made up immediately prior to use (HBSS, 0.01% BSA essentially fatty acid free).
Recombinant human ATX was prepared at Novartis (Basel, CH) in a human embryonic kidney (HEK) cell preparation, and stored in single use aliquots of […] (26 μM) stocks stored at −80° C.
All experimental measurements were performed in black 384 well polystyrene (low volume, round bottom, Corning (3676)) plates. PerkinElmer EnVision (Fluorescence Intensity/Absorbance Monochromator) or Tecan Infinite 200 PRO series plate reader was used to detect change in fluorescent intensity.
ATX activity was determined by measurement of released choline in reactions containing ATX (10 nM), choline oxidase (0.1 U/ml), HRP (100 U/ml), amplex red (50 μM) and LPC 18:1 (10 μM). Compounds of the invention were prepared as 10 point serial dilutions from 1 μM in duplicate and pre-incubated with ATX at 37° C. for 20 minutes prior to the addition of remaining reagents. The liberated choline was measured from changes in fluorescence intensity (λex 530 nm, λem 590 nm) of the product resurofin at 37° C. every 2 minutes over a 40-minute period. ATX activity was measured as a slope of the linear portion of the progress curve, typically between 14 to 24 minutes.
Slope data was exported to Graphpad prism (Graphpad software, San Diego, Calif.) where data was fitted to equation 1. Y=Bottom+(Top−Bottom)/(1+10^((Log IC50−X)*HillSlope)) Equation 1: […]

IC50 (ATX 10 nM, LPC 18:1 10 μM, 37° C., 20 min pre-incubation, mean of n 2) [µM] | Molecule | IC50 [µM]
 | (S)-3,5-Dichlorobenzyl 3-(4-(1H-1,2,3-triazol-4-yl)butanamido)pyrrolidine-1-carboxylate or (R)-3,5-Dichlorobenzyl 3-(4-(1H-1,2,3-triazol-4-yl)butanamido)pyrrolidine-1-carboxylate [Example 49b] | 0.263
 | (S)-3,5-Dichlorobenzyl 3-(4-(1H-1,2,3-triazol-4-yl)butanamido)pyrrolidine-1-carboxylate or (R)-3,5-Dichlorobenzyl 3-(4-(1H-1,2,3-triazol-4-yl)butanamido)pyrrolidine-1-carboxylate [Example 49a] | > 1
1 | CN(CCC1CCN(C(=O)OCc2cc(Cl)cc(C#N)c2)CC1)C(=O)c1c[nH]nn1 [Example 36, 3-Chloro-5-cyanobenzyl 4-(2-(N-methyl-1H-1,2,3-triazole-4-carboxamido)ethyl)piperidine-1-carboxylate] | 
